Test results reported in patent US20200291018A1, “TAM KINASE INHIBITORS” (SYROS PHARMACEUTICALS, INC., priority 2017, published 2020).
Structures can show the parent of a compound that is named as a salt.

What was measured:
FLT3 = molecular target: T1, FLT3 (Homo sapiens, UniProt P36888); test: TR-FRET kinase activity assay, FLT3; assay type: biochemical; conditions: ATP at Km, 60 minutes
T1 sequence (P36888 27-993): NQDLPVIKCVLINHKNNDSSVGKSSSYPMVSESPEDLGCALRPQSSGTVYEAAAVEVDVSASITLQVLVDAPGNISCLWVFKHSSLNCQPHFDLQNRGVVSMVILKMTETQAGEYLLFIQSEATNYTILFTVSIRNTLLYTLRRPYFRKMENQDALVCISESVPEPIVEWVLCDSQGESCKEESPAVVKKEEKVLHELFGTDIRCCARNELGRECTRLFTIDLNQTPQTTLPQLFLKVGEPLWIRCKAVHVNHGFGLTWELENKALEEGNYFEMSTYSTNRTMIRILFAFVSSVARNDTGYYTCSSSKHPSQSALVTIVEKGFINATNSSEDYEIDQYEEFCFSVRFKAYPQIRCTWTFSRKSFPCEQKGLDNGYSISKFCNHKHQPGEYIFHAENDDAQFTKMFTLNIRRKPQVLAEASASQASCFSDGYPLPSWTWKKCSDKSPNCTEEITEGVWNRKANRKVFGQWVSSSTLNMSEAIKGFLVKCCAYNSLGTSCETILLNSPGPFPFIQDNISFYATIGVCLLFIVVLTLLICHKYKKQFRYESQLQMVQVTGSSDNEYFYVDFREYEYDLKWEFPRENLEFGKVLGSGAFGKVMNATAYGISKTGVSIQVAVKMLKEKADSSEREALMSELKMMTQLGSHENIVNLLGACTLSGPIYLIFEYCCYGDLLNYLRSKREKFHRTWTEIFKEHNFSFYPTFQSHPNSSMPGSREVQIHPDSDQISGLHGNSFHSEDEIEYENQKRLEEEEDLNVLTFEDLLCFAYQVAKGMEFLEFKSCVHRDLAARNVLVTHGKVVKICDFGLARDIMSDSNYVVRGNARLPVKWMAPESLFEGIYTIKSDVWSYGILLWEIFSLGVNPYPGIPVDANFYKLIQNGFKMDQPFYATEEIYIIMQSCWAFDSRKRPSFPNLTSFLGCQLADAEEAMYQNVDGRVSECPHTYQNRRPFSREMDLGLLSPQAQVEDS
Experimental: (§1) IC50 values for compound inhibition of AXL, FLT3, MERTK and TYRO3 activity were determined using a TR-FRET activity assay. A peptide substrate with a fluorescent label is phosphorylated on a tyrosine by each enzyme, where the now phosphorylated product is bound by a Europium-labeled antibody specific to that phosphorylation site. The proximity between the antibody and the substrate gives a signal known as TR-FRET. As the enzyme is inhibited by compound, less phosphorylated peptide product is made, causing a decrease in overall signal.
(§2) Activity assays were performed in a 384-well, small volume, black microplates in an active enzyme volume of 10 uL and final developed volume of 20 uL. Final assay conditions are 50 mM HEPES pH 7.5, 10 mM MgCl2, 1 mM EGTA, 0.01% Brij 35 and 1 mM DTT, all at RT. Enzyme, substrate-labeled peptide and compound are mixed, and then the reaction is initiated with the addition of ATP at Km concentration for each enzyme. The reaction is allowed to run 60 minutes and then quenched with a 12.5 mM EDTA (ethylenediamine tetraacetic acid) solution. The plate is then developed with the addition of Europium-labeled antibody for a final volume of 20 uL and is then incubated for 30 minutes in darkness. Plates are read in a PHERASTAR® plate reader. Data are analyzed in GraphPad PRISM.

MERTK = molecular target: T2, MERTK (Homo sapiens, UniProt Q12866); test: TR-FRET kinase activity assay, MERTK; assay type: biochemical; conditions: for IC50: TR-FRET activity assay, ATP at Km, 60 minutes, read-out: Mer IC50; for Mer/Flt3 ratio (FLT3 IC50/Mer IC50): ratio calculated as FLT3 IC50/Mer IC50
T2 sequence (Q12866 21-999): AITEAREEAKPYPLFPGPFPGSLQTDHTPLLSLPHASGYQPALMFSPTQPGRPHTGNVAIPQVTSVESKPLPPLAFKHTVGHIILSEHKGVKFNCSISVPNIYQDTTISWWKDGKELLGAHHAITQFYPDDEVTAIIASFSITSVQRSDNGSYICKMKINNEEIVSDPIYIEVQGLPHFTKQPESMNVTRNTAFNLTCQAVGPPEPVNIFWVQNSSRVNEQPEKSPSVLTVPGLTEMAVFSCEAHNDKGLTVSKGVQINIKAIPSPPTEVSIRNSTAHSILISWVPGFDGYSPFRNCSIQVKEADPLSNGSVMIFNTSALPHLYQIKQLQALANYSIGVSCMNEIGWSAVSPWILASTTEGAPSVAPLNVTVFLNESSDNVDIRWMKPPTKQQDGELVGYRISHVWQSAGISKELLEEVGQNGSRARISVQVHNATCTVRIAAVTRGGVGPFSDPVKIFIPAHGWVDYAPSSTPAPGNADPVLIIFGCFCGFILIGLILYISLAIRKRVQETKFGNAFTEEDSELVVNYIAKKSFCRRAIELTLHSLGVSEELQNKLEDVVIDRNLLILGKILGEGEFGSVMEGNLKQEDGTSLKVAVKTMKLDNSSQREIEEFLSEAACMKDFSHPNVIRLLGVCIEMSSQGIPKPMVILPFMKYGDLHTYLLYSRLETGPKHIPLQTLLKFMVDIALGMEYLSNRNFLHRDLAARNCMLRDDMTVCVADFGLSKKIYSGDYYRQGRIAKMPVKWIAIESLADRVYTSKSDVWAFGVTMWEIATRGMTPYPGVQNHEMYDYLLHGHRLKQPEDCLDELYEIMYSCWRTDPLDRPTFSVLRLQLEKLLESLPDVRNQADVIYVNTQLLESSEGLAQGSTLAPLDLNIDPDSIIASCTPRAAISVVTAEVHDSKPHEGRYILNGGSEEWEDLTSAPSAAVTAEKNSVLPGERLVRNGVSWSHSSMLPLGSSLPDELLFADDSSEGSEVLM
Experimental: as §1, §2

Row | SMILES | IC50 (FLT3) [nM] | IC50 (MERTK) [nM] | Mer/Flt3 ratio (FLT3 IC50/Mer IC50) (MERTK)
1 | CC[C@H](C)Nc1ncc2c(=O)n(CC34CCC(N(C)C)(CC3)CC4)cc([C@H]3CC[C@H](O)CC3)c2n1 [Compound 264] | 1000 to 10000 | ≤ 100 | +++ (a ratio of >100)
2 | CCOc1ncc(C2CCN(C)CC2)c2nc(N[C@@H](C)CC)ncc12 [Compound 215] | 1000 to 10000 | 100 to 1000 | ++ (a ratio of between 10 and 100)
3 | CC[C@H](C)Nc1ncc2c(=O)n(CC34CCC(N)(CC3)CC4)cc([C@H]3CC[C@H](O)CC3)c2n1 [Compound 251] | 1000 to 10000 | ≤ 100 | +++ (a ratio of >100)
4 | CCc1ncc([C@H]2CC[C@H](O)CC2)c2nc(N[C@@H](C)CC)ncc12 [Compound 244] | 1000 to 10000 | ≤ 100 | +++ (a ratio of >100)
5 | CCCC(C)Nc1ncc2c(=O)n(C3CCN(C4COC4)CC3)cc([C@H]3CC[C@H](O)CC3)c2n1 (stereo partly drawn) [Compound 201] | 1000 to 10000 | 100 to 1000 | +++ (a ratio of >100)
6 | CC(C)Nc1ncc2c(OC3CCOCC3)ncc(-c3cccc(CC#N)c3)c2n1 [Compound 274] | 1000 to 10000 | ≤ 100 | ++ (a ratio of between 10 and 100)
7 | Cc1cccc(Nc2ncc3c(OC4CCNCC4)ncc([C@H]4CC[C@H](O)CC4)c3n2)c1 [Compound 197] | 100 to 1000 | ≤ 100 | ++ (a ratio of between 10 and 100)
8 | CCCC(C)Nc1ncc2c(=O)n([C@@H]3CCCN(C)C3)cc([C@H]3CC[C@H](O)CC3)c2n1 (stereo partly drawn) [Compound 200] | 1000 to 10000 | ≤ 100 | +++ (a ratio of >100)
9 | CC[C@H](C)Nc1ncc2c(C3CCN(C)CC3)ncc([C@H]3CC[C@H](O)CC3)c2n1 [Compound 240] | 1000 to 10000 | ≤ 100 | +++ (a ratio of >100)
10 | COC[C@H](C)Nc1ncc2c(OC3CC(C)(C)N(C)C(C)(C)C3)ncc([C@H]3CC[C@H](O)CC3)c2n1 [Compound 259] | 1000 to 10000 | ≤ 100 | +++ (a ratio of >100)

Other lines, results leading:

Row | IC50 (FLT3) [nM] | IC50 (MERTK) [nM] | Mer/Flt3 ratio (FLT3 IC50/Mer IC50) (MERTK) | SMILES
11 | 100 to 1000 | ≤ 100 | + (a ratio of >2.0 and <10) | CCOc1ncc(CC2CCNCC2)c2nc(N[C@@H](C)CC)ncc12 [Compound 236]
12 | 100 to 1000 | ≤ 100 | ++ (a ratio of between 10 and 100) | CCCCNc1cc2c(cn1)c(=O)n(C1CCNCC1)cc2[C@H]1CC[C@H](O)CC1 [Compound 109, 6-(butylamino)-4-((1r,4r)-4-hydroxycyclohexyl)-2-(piperidin-4-yl)-2,7-naphthyridin-1(2H)-one hydrochloride]
13 | 100 to 1000 | ≤ 100 | ++ (a ratio of between 10 and 100) | CCc1cccc(Nc2ncc3c(OC4CCNCC4)ncc([C@H]4CC[C@H](O)CC4)c3n2)c1 [Compound 207]
14 | 100 to 1000 | ≤ 100 | +++ (a ratio of >100) | CC[C@H](C)Nc1ncc2c(O[C@H]3CC[C@H](N(C)C)C3)ncc([C@H]3CC[C@H](O)CC3)c2n1 [Compound 267]
15 | ≤ 100 | ≤ 100 | ++ (a ratio of between 10 and 100) | O[C@H]1CC[C@H](c2cnc(OC3CCNCC3)c3cnc(Nc4cccc(Cl)c4)nc32)CC1 [Compound 205]
16 | ≤ 100 | ≤ 100 | + (a ratio of >2.0 and <10) | O[C@H]1CC[C@H](c2cnc(OC3CCNCC3)c3cnc(Nc4ccccc4)nc32)CC1 [Compound 210]
17 | 100 to 1000 | ≤ 100 | +++ (a ratio of >100) | CCOc1ncc([C@H]2CC[C@H](O)CC2)c2nc(N[C@@H](C)CC)ncc12 [Compound 235]
18 | ≤ 100 | ≤ 100 | + (a ratio of >2.0 and <10) | CCCC(C)Nc1ncc2c(OC3CCNCC3)ncc([C@H]3CC[C@H](O)CC3)c2n1 (stereo partly drawn) [Compound 203]
